The values below come from PMC5853558, “De novo identification of lipid II binding lipopeptides with antibacterial activity against vancomycin-resistant bacteria” (Chemical Science, 2017).

Converted amounts (≈) assume the structure as drawn. Read-outs that look alike come from different tables or passages of the source. *1 amine or outer side, *2 acyl side, *3 side chain or, on linkers, in order; H or OH if unused. Where a SMILES comes first, the peptide text is derived from it. Bridges are numbered along the chain shown (N, C = ends). [ ]: non-standard residue; d: D form. The star is where a group is joined. TBMB = c1c(C[*:1])cc(C[*:3])cc1C[*:2]; NHDecyl = CCCCCCCCCCN*; NHOctyl = CCCCCCCCN*; NHHex = CCCCCCN*

What all share (assay): microbe, parasite or virus in culture
For assay [1], the system named is E. faecium (VRE155). It is filed as cell-based, Enterococcus faecium. The following applies: for MIC VRE E155: Supplemental table S7, P8 with varying lipids, broth microdilution; for MIC: Enterococcus faecium, read-out: MIC E. faecium (VRE155). The protocol:
(§1) Section 4 Biological and biochemical experiments
(§2) 4.1 Minimum inhibitory concentration assay
(§3) MIC values were determined by using the broth microdilution method. Peptides were dissolved first in DMSO and diluted with broth so that the final peptide concentration was 1024 µg/ml and the DMSO concentration was 4%. Peptide serial dilutions were made in TSB in a polypropylene 96-wells plate using 50 µl volumes. An overnight culture of the organism of interest was diluted to and OD600 of 0.01 and grown until they reach 0.5. The culture was then diluted to 1 x 10^6 CFU/ml and 50 µl of this suspension was added to each well. The highest concentrations were then 512 µg/ml peptide and 2% DMSO. The plates were incubated at the preferred growth temperature of the organism that was used and 250 rpm. […] When […]
(§4) determining the MICs of the lipidated peptides, the lipopeptides were first dissolved in DMSO and diluted with TSB so that the peptide concentration was 128 µg/ml and the DMSO concentration was 4%. After inoculation the highest peptide concentration evaluated was 64 µg/ml and the DMSO concentration was 2%. A DMSO control was tested for each strain to ensure the DMSO did not affect the growth of the particular strain. […]
A general note: Dilution methods test growth across graded concentrations, often in twofold steps.

Assay [2] relates to M. luteus (NCTC2665). It counts as cell-based, Micrococcus luteus. The following applies: for MIC: Micrococcus luteus; for MIC of Ala scan of P8-D against M. luteus: Supplemental table S8, non-lipidated P8 variants, highest tested 512 µg/ml. On the procedure:
as §1, §2, §3, §4

For assay [3], the system named is B. subtilis (168). It counts as cell-based. The following applies: for MIC: Bacillus subtilis, read-out: MIC B. subtilis (168). On the procedure:
as §1, §2, §3, §4

The subject of assay [4] is E. faecium (VRE2297). It counts as cell-based, Enterococcus faecium. The following applies: Enterococcus faecium, read-out: MIC E. faecium (VRE2297). The protocol:
as §1, §2, §3, §4

The subject of assay [5] is E. faecium (E980). It is filed as cell-based, Enterococcus faecium. The following applies: Enterococcus faecium, read-out: MIC E. faecium (E980). The protocol: as §1, §2, §3, §4
Assay [6] has as its system E. faecium (VRE0321). It counts as cell-based, Enterococcus faecium. The following applies: Enterococcus faecium, read-out: MIC E. faecium (VRE0321). On the procedure:
as §1, §2, §3, §4

Assay [7] concerns E. faecium (VRE7391). It counts as cell-based, Enterococcus faecium. The following applies: Enterococcus faecium, read-out: MIC E. faecium (VRE7391). The protocol:
as §1, §2, §3, §4

Assay [8] concerns S. epidermidis (1587). It counts as cell-based. The following applies: Staphylococcus epidermidis, read-out: MIC S. epidermidis (1587). On the procedure:
as §1, §2, §3, §4

Assay [9] relates to S. pyogenes (5448). It is filed as cell-based. The following applies: Streptococcus pyogenes, read-out: MIC S. pyogenes (5448). The protocol: as §1, §2, §3, §4
Setting [10] is: Supplemental table S7, P8 with varying lipids, broth microdilution.
The mark [11] stands for this setting: Supplemental table S6, lipidated phage display hits, n.a. = not active, highest tested conc 64 µg/ml.

As to `CCCCCCCCNC(=O)CNC(=O)[C@H]1CSCc2cc3cc(c2)CSC[C@@H](NC(=O)[C@@H](CC(C)C)NC(=O)[C@@H](CC(C)C)NC(=O)[C@@H](CO)NC(=O)[C@@H](CCC(N)=O)NC(=O)[C@@H](CC(C)C)NC(=O)[C@@H](CC(C)C)NC(=O)[C@H](NC(=O)[C@@H](C)N)CSC3)C(=O)N2CCC[C@@H]2C(=O)N[C@H](Cc2ccc(O)cc2)C(=O)N[C@H](CO)C(=O)N[C@H]([C@H](C)O)C(=O)N[C@H](Cc2c[nH]cn2)C(=O)N[C@H](CCCNC(=N)N)C(=O)N1` [Peptide P8-D-C8] (H-[dA][dC][dL][dL][dQ][dS][dL][dL][dC][dP][dY][dS][dT][dH][dR][dC]G-NHOctyl; linker 2-9-16 via TBMB; N-terminus assumed), in [1], the “MIC VRE E155” value was in the range of 8 to 16 µg/mL. In assay [2] (setting [10]), the “MIC M. luteus” value was determined as 16 µg/mL (≈ 7.65 µM).

On to `CCCCCCCCCCNC(=O)CNC(=O)[C@@H]1CSCc2cc3cc(c2)CSC[C@H](NC(=O)[C@H](CC(N)=O)NC(=O)[C@H](Cc2ccccc2)NC(=O)[C@H](CCCCN)NC(=O)[C@H](CCC(N)=O)NC(=O)[C@@H]2CCCN2C(=O)[C@H](CCCNC(=N)N)NC(=O)[C@@H](NC(=O)[C@H](C)N)CSC3)C(=O)N[C@@H]([C@@H](C)CC)C(=O)N[C@@H](CO)C(=O)N[C@@H](C)C(=O)N[C@@H](CC(N)=O)C(=O)N[C@@H]([C@@H](C)CC)C(=O)N[C@@H](CCCNC(=N)N)C(=O)N1` [Peptide P4-C10] (H-ACRPQKFNCISANIRCG-NHDecyl; linker 2-9-16 via TBMB; N-terminus assumed), for which the “MIC B. subtilis” value in [3] (setting [11]) lay within 8 to 16 µg/mL. Besides, in assay [2] (setting [11]), the “MIC M. luteus” value is 8 µg/mL (≈ 3.75 µM).

For the compound `CN[C@H](CC(C)C)C(=O)N[C@H]1C(=O)N[C@@H](CC(N)=O)C(=O)N[C@H]2C(=O)N[C@H]3C(=O)N[C@H](C(=O)N[C@H](C(=O)O)c4cc(O)cc(O)c4-c4cc3ccc4O)[C@H](O)c3ccc(c(Cl)c3)Oc3cc2cc(c3O[C@@H]2O[C@H](CO)[C@@H](O)[C@H](O)[C@H]2O[C@H]2C[C@](C)(N)[C@H](O)[C@H](C)O2)Oc2ccc(cc2Cl)[C@H]1O` [Vancomycin], the MIC in assay [1] (16 h) was 64 µg/mL; in [1] it was 44.2 µM; in assay [4] (16 h) it was above 64 µg/mL; in [4] it was above 44.2 µM; in assay [5] (16 h) it was below 1 µg/mL; in assay [5], below 0.7 µM. The MIC was above 64 µg/mL in assay [6] (16 h); above 44.2 µM in [6]; above 64 µg/mL in assay [7] (16 h); above 44.2 µM in [7]; 2 µg/mL in assay [8] (16 h); 1.4 µM in assay [8]. For the same compound, the MIC in assay [9] (16 h) was below 1 µg/mL; in assay [9], below 0.7 µM; in assay [3] (16 h), below 1 µg/mL; in assay [3] it was below 0.7 µM; in assay [2] (NCTC2665, 16 h, read-out: MIC M. luteus (NCTC2665)), below 1 µg/mL; in assay [2] (NCTC2665, read-out: MIC M. luteus (NCTC2665)) it was below 0.7 µM.

Turning to `CCCCCCNC(=O)CNC(=O)[C@H]1CSCc2cc3cc(c2)CSC[C@@H](NC(=O)[C@@H](CC(C)C)NC(=O)[C@@H](CC(C)C)NC(=O)[C@@H](CO)NC(=O)[C@@H](CCC(N)=O)NC(=O)[C@@H](CC(C)C)NC(=O)[C@@H](CC(C)C)NC(=O)[C@H](NC(=O)[C@@H](C)N)CSC3)C(=O)N2CCC[C@@H]2C(=O)N[C@H](Cc2ccc(O)cc2)C(=O)N[C@H](CO)C(=O)N[C@H]([C@H](C)O)C(=O)N[C@H](Cc2c[nH]cn2)C(=O)N[C@H](CCCNC(=N)N)C(=O)N1` [Peptide P8-D-C6] (H-[dA][dC][dL][dL][dQ][dS][dL][dL][dC][dP][dY][dS][dT][dH][dR][dC]G-NHHex; linker 2-9-16 via TBMB; N-terminus assumed), the “MIC VRE E155” value in assay [1] lay in the range of 16 to 32 µg/mL. The “MIC M. luteus” value in [2] (setting [10]) came to 32 µg/mL (≈ 15.5 µM).

For the compound `CC(C)C[C@@H]1NC(=O)[C@@H]2CSCc3cc(cc(c3)CSC[C@@H](C(=O)NCC(N)=O)NC(=O)[C@H](CC(=O)O)NC(=O)[C@H](C(C)C)NC(=O)[C@H]([C@@H](C)O)NC(=O)[C@H](CCC(N)=O)NC(=O)[C@H](Cc3ccccc3)NC1=O)CSC[C@H](NC(=O)[C@H](C)N)C(=O)N[C@@H](Cc1ccc(O)cc1)C(=O)N1CCC[C@H]1C(=O)N[C@@H](C(C)C)C(=O)N[C@@H](CC(=O)O)C(=O)N[C@@H](Cc1c[nH]c3ccccc13)C(=O)N[C@@H](Cc1ccc(O)cc1)C(=O)N2` [Peptide P6] (H-ACYPVDWYCLFQTVDCG-NH2; linker 2-9-16 via TBMB; N-terminus assumed), in assay [2] (Table 1, non-lipidated bicyclic peptides, broth microdilution in TSB, 16 h, read visually, n.a. = no activity, highest tested concentration 512 μg mL^–1), the “MIC against M. luteus” value is 128 μg mL^–1.

As to `CCCCCCCCCCNC(=O)CNC(=O)[C@@H]1CSCc2cc3cc(c2)CSC[C@H](NC(=O)[C@H](Cc2ccc(O)cc2)NC(=O)[C@H](Cc2c[nH]c4ccccc24)NC(=O)[C@H](CC(=O)O)NC(=O)[C@H](C(C)C)NC(=O)[C@@H]2CCCN2C(=O)[C@H](Cc2ccc(O)cc2)NC(=O)[C@@H](NC(=O)[C@H](C)N)CSC3)C(=O)N[C@@H](CC(C)C)C(=O)N[C@@H](Cc2ccccc2)C(=O)N[C@@H](CCC(N)=O)C(=O)N[C@@H]([C@@H](C)O)C(=O)N[C@@H](C(C)C)C(=O)N[C@@H](CC(=O)O)C(=O)N1` [Peptide P6-C10] (H-ACYPVDWYCLFQTVDCG-NHDecyl; linker 2-9-16 via TBMB; N-terminus assumed), the “MIC M. luteus” value in [2] (setting [11]) turned out to be 2 µg/mL (≈ 0.894 µM).

In the case of `CC(C)C[C@H]1NC(=O)[C@@H](C)NC(=O)[C@H](NC(=O)[C@@H](C)N)CSCc2cc3cc(c2)CSC[C@@H](NC(=O)[C@@H](CC(C)C)NC(=O)[C@@H](CC(C)C)NC(=O)[C@@H](CO)NC(=O)[C@@H](CCC(N)=O)NC1=O)C(=O)N1CCC[C@@H]1C(=O)N[C@H](Cc1ccc(O)cc1)C(=O)N[C@H](CO)C(=O)N[C@H]([C@H](C)O)C(=O)N[C@H](Cc1c[nH]cn1)C(=O)N[C@H](CCCNC(=N)N)C(=O)N[C@@H](C(=O)NCC(N)=O)CSC3` [Peptide P8-D-L3A] (H-[dA][dC][dA][dL][dQ][dS][dL][dL][dC][dP][dY][dS][dT][dH][dR][dC]G-NH2; linker 2-9-16 via TBMB; N-terminus assumed), the “MIC of Ala scan of P8-D against M. luteus” value in [2] (broth microdilution) was above 512 µg/mL.

For the compound `CC(C)C[C@H]1NC(=O)[C@H](NC(=O)[C@@H](C)N)CSCc2cc3cc(c2)CSC[C@@H](NC(=O)[C@@H](CC(C)C)NC(=O)[C@@H](CC(C)C)NC(=O)[C@@H](CO)NC(=O)[C@@H](CCC(N)=O)NC(=O)[C@@H](CC(C)C)NC1=O)C(=O)N1CCC[C@@H]1C(=O)N[C@H](Cc1ccc(O)cc1)C(=O)N[C@H](CO)C(=O)N[C@H]([C@H](C)O)C(=O)N[C@H](C)C(=O)N[C@H](CCCNC(=N)N)C(=O)N[C@@H](C(=O)NCC(N)=O)CSC3` [Peptide P8-D-H14A] (H-[dA][dC][dL][dL][dQ][dS][dL][dL][dC][dP][dY][dS][dT][dA][dR][dC]G-NH2; linker 2-9-16 via TBMB; N-terminus assumed), in assay [2] (broth microdilution), the “MIC of Ala scan of P8-D against M. luteus” value lay within 64 to 128 µg/mL.
